In patent US20240316012A1, “METHODS FOR TREATING LYMPHOMA” (Northwestern University, priority 2023, published 2024):

Legend:
[1] = test system: PDCD1-mutant lymphoma cells (primary CTCL); experiment: Inhibitor treatment of human cells in vitro, division index, PDCD1-mutant CTCL cells; type: cell-based; conditions: 2-DG 1 mM, everolimus 0.1 μM, BMS-303141 10 μM; anti-CD3/anti-CD28 beads, 6 days; FIG. 7E
Procedure: (§1) FIGS. 7A-7H show ACLY dependency and AP-1 activation in human PDCD1 defective T-NHL. […] CNA, copy number aberrations. FIG. 7B GSEA for the indicated gene sets based on RNA-seq data from the 21 CTCL patients shown in (a). NES, normalized enrichment score; FDR, false discovery rate. […] P=one-way ANOVA and two-sided Student's t-test. Shown are the mean±SD and individual data points. […] FACS-sorted malignant cells were stimulated with anti-CD3/anti-CD28 beads, and 2-NBDG uptake was determined at the indicated time points. P=two-sided Student's t-test. Shown are the mean±SEM and individual data points. […] CFSE, carboxyfluorescein succinimidyl ester. P=two-sided Student's t-test. The data are presented as the mean±SEM and individual data points. […] Legend as in (5a). […] FIG. 7H GSEA for the indicated gene sets with RNA-seq data from 21 CTCL PDCD1mut” or “PDCD1 wt, and three patients with hyperprogression. NES, normalized enrichment score; FDR, false discovery rate. FIGS. 7A and 7B, Data from a single experiment with 21 patients. FIGS. 7C and 7D, Data from one experiment with three patients per group and three healthy donors. FIG. 7E, Data from one experiment with three patients and three healthy donors. FIGS. 7F and 7G, Data from one experiment with three patients per group. FIG. 7H, Data from a single experiment.
(§2) Isolation of primary human CTCL cells. This study was approved by the Northwestern University Institutional Review Board. Patients provided informed consent for inclusion in the study. […] The tumor burden for each patient was determined using well-validated clinical markers, taking whichever value was higher between Sezary cell counts or the CD26 negative cell number by clinical flow cytometry. These were analyzed in conjunction with white blood cell and absolute lymphocyte counts.
(§3) Inhibitor treatment of human cells in vitro Malignant CTCL cells and CD4^+ T cells from healthy donors were isolated as previously described. […] After 6 days, the cells were analyzed by flow cytometry, and the division index was determined using the FlowJo proliferation tool (v10.6, FlowJo LLC).

[2] = test system: PD-1 wild-type tumors (primary CTCL); experiment: Inhibitor treatment of human cells in vitro, division index, PD-1 wild-type CTCL cells; type: cell-based; conditions: 2-DG 1 mM, everolimus 0.1 μM, BMS-303141 10 μM; 6 days; FIG. 7E
Procedure: as §1, §2, §3

[3] = test system: H3K27 acetylation; experiment: Flow cytometry for H3K27ac after in vitro culture with inhibitors; type: cell-based, mouse; conditions: exogenous acetate 100 μM; FIG. 11E
Excerpt: Data are normalized to viable cell number and z-scores per metabolite. […] P=two-sided Student's t-test. The data are presented as the mean±SEM and individual data points for each animal. Cross indicates death of the animal. […] P=two-sided Student's t-test. Shown are the mean±SD and individual data points. […] Data are presented as mean±SD and individual data points. […] P=paired two-sided Student's t-test. Data are presented as the mean±SD. […] Data was normalized as in (a). P=two-sided Student's t-test. The data are presented as the mean±SEM. […] Experiment as in (h) (n=3 mice genotype). Data was normalized as in (a). P=two-sided Student's t-test. Data are presented as the mean±SD. FIGS. 3-D, Representative data from two independent experiments with n=3 biological replicates per group. FIG. 3E, Representative data from two independent experiments with two biological replicates per group. FIG. 3F, Representative data from two independent experiments. FIG. 3G, Representative data from two independent experiments with three biological replicates per group. FIG. 3H, Representative data from one experiment with four biological replicates per group. FIG. 3I, Representative data from one experiment with three biological replicates per group FIGS. 4A-4H show ACLY is a critical effector molecule downstream of PD-1. […] ITK-SYK^+ cells were FACS-sorted from ITK-[…]2 mice on d5 after TAM and 12 h anti-PD-L1 or isotype control antibody treatment (i.p., 200 μg). P=paired two-sided Student's t-test. Data are presented as the mean±SD. […] Spleen-derived single-cell suspensions were FACS-sorted from ITK-[…]2 mice on d5 after TAM and cultured in vitro overnight with anti-PD-L1 or isotype control antibodies and the PI3K inhibitors (“iPI3K”) Wortmannin (20 nM), LY294002 (20 μM), or DMSO. […] Spleen-derived lymphocytes, FACS-sorted from ITK-[…]2 and ITK-[…]2; Pdcd1^-/- mice on d5 after TAM were incubated for three days in vitro. P=two-sided Student's t-test. Data are presented as the mean±SD. […] Protein lysates were generated after 48 h in vitro culture. RNP, ribonucleoprotein. […] P=two-sided Logrank-test. […] ITK-SYK^+ cells were FACS-sorted from ITK-[…]2 (“Pdcd1^+/+”) and ITK-[…]2; Pdcd1^-/- (“Pdcd1^-/-”) mice on d5 after TAM, fixed, and processed for anti-H3K27ac ChIP-seq analysis. ChIP-seq, chromatin immunoprecipitation sequencing; TSS, transcription start site. FIG. 4B, Representative data from three independent experiments with three biological replicates per group. FIG. 4C, Representative data from two independent experiments with two biological replicates. FIGS. 4D and 4E, Representative data from 3 independent experiments. FIGS. 4F and 4G, Data from one experiment with n=5 mice per group. […] (8752, CST), and assessed by flow cytometry. […]

[4] = test system: ITK-SYK^+PD-1− lymphoma; experiment: Torin-1 inhibitor treatment in vivo of lymphoma-bearing NSG mice; set-up: species or system mouse
Excerpt: FIGS. 2A-2F PD-1 represses mTOR and HIF1α in pre-malignant cells. […] White arrows indicate spleens. Color intensity represents the calculated MBq/ml uptake of ^18F-FDG. SUV, standardized uptake value ^18F-FDG, ^18F-fluordesoxyglucose. […] SUVmax denotes the maximum signal found in a single voxel across the entire tumor lesion. P=one-way ANOVA and two-sided Student's t-test. Shown are the mean±SEM and individual data points. […] CSI, chemical shift imaging. ROI, region of interest. […] P=two-sided Student's t-test. Shown are the mean±SD and individual data points. […] Spleen-derived single-cell suspensions were generated from ITK-SYK^CD4-creERT2 mice on d5 after TAM. Before fixation, anti-PD-L1 or control antibodies were added for four hours in vitro. […] On day 0, NSG mice received 1,000 ITK-SYK-expressing eGFP+ cells from an ITK-SYK^CD4-creERT2; Pdcd1^−/− mouse, FACS-sorted on d5 after TAM. Mice received 6 mg/kg Torin-1 or vehicle daily via intraperitoneal injection (n=6 mice per group) from day 3 p.i. on. P=two-sided log-rank test. FIG. 2A, Representative mice from two independent experiments. FIG. 2B, Pooled data from two independent experiments. FIG. 2C, Representative amplitudes from one experiment. FIG. 2D, Pooled data from two independent experiments. FIG. 2E, Representative data from two independent experiments with two biological replicates per group. […]

CO[C@H]1C[C@@H]2CC[C@@H](C)[C@@](O)(O2)C(=O)C(=O)N2CCCC[C@H]2C(=O)O[C@H]([C@H](C)C[C@@H]2CC[C@@H](OCCO)[C@H](OC)C2)CC(=O)[C@H](C)/C=C(\C)[C@@H](O)[C@@H](OC)C(=O)[C@H](C)C[C@H](C)/C=C/C=C/C=C/1C [everolimus]
viability, division and proliferation of PDCD1-mutant cancer cells (relative division index) [1]: reduced the viability and division
response of stage-matched PD-1 wild-type tumors (relative division index) [2]: resistant

CC(=O)O [acetate]
restoration of decreased H3K27ac signals in ACLY inhibitor-treated lymphoma cells [3]: not able to restore

CCC(=O)N1CCN(c2ccc(-n3c(=O)ccc4cnc5ccc(-c6cnc7ccccc7c6)cc5c43)cc2C(F)(F)F)CC1 [Torin-1]
survival of ITK-SYK+PD-1− lymphoma-bearing mice ([4]; NSG mice, Torin-1 intraperitoneal from day 3, 6 mg/kg daily or 10 mg per kg per day 5 days a week, vs vehicle, p=0.0057): significantly prolonged survival
mTOR activity within the tumor cells in vivo ([4]; lymphoma-bearing mice, FIG. 10G): blocks mTOR activity
